# Assay results as given in patent US20230160890A1, “COMPOSITIONS AND METHODS FOR DIAGNOSING NARCOLEPSY” (The Board of Trustees of the Leland Stanford Junior …, priority 2018, published 2023).
# Entries after “also recorded” stand apart in the source; their conditions may differ. Ends that are not written are not given here. * marks the point of attachment. Biotin = O=C1N[C@H]2[C@H](CS[C@H]2CCCCC(=O)*)N1
# T1: prepro-HCRT (hypocretin precursor) peptide on HLA-DQA1*01:02 / HLA-DQB1*06:02 (human)
# T1 peptide: ALLSSGAAAQPLP
# T2: prepro-HCRT (hypocretin precursor) peptide on HLA-DQA1*01:02 / HLA-DQB1*06:02 (human)
# T2 peptide: MNLPSTKVSWAAV
# T3: prepro-HCRT (hypocretin precursor; C-terminus of HCRT2) peptide on HLA-DQA1*01:02 / HLA-DQB1*06:02 (human)
# T3 peptide: SGNHAAGILTMGRR
# B1: TCR26 (TCR)
# alpha TRAV9-2 TRAJ5 CDR3: CALSGKDTGRRALTF
# beta TRBV25-1 TRBJ2-1 CDR3: CASSASPNEQFF
# B2: Hcrt1-15 peptide (…) (peptide)
# peptide: MNLPSTKVSWAAVTL
# B3: T1N-irrelevant TCR isolated from a CD8+ T cell (TCR)
# alpha TRAV25 TRAJ42 CDR3: CAGTYGGSQGNLIF
# beta TRBV19 TRBJ2-2 CDR3: CASSLRSTGELFF
# Legend:
# [1] = tested on: CD4+ T cells from T1N donors; assay: In vitro culturing of CD4+ T cells with peptide-loaded T2DQ6 APCs, then tetramer staining; format: cell-based, human; conditions: for Frequencies of tetramer+ cells after in vitro stimulation with the corresponding peptide: stained with the tetramer of the corresponding peptide
# Description: To test for the presence of DQ6-HCRTpeptide tetramer^+/CD4^+ T cells, a peptide-loaded antigen presenting cell (APC) line T2DQ6 (fixed to limit APC proliferation) was co-cultured with T cells for DQ6-restricted antigen stimulation. T2DQ6 was constructed by stable transfection of DQ6 (DQA1*01:02/DQB1*06:02) into T2, a class II deficient TxB hybrid cell^44. T2DQ6 cells were maintained in IMDM, GlutaMAX supplemented media (Thermo Fisher Scientific) with 10% HI FBS, 1% penicillin/streptomycin (P/S) and 1 mg/ml G418 (to maintain selective pressure on DQ6 transfectants). To load antigen, T2DQ6 cells were pulsed with peptides (i.e., EBV486-500, HCRT56-69, HCRT87-100, synthesized by Genscript) at 1 μM final concentration and incubated for 6 hours at 37° C. After peptide loading, 10 million T2DQ6 cells were washed with phosphate buffered saline (PBS) and then fixed by incubating with 0.025% glutaraldehyde in 2 ml PBS at RT for 30 seconds. After the addition of another 2 ml PBS, the cells were incubated for another 10 minutes at RT. Fixed T2DQ6 was washed twice with PBS and once with complete RPMI (RPMI 1640 medium supplemented with 10% HI human AB serum, 2 mM glutamine and 1% PS) before mixing with CD4^+ T cells. Human PBMCs frozen in NUNC tubes were thawed quickly at 37° C. and added slowly to 10 ml warm complete RPMI. PBMCs were pelleted and resuspended in cold buffer for CD4^+ T cell isolation. Cells were isolated from the PBMCs by negative selection, using the CD4^+ cell isolation kit, according to the manufacturer's instructions (Miltenyi Biotec). Isolated CD4^+ T cells were resuspended at 1×10^6 cells/ml in warm complete RPMI and rested for at least 1 hour before mixing with fixed T2DQ6 cells that were also resuspended at 1×10^6 cells/ml in warm complete RPMI. A mixture of 1:1 volume ratio of CD4^+ T cells and T2DQ6 cells in the presence of recombinant human IL-7 at final concentration of 2.5 ng/ml was aliquoted onto a 96-well plate and incubated at 37° C. for 6 days. On day 6 and day 9, 100 μl of the spent medium was removed from each well and replaced with fresh complete RPMI containing recombinant IL-7 at 2.5 ng/ml and IL-2 at 40 U/ml final concentrations. On day 12, a second round of antigen stimulation was performed similarly, using fixed T2DQ6 cells loaded with the corresponding peptides.
# Sufficient cells from the co-culture were collected, washed with complete RPMI, and resuspended in 5 ml complete RPMI at RT prior to Ficoll gradient separation. Cells above the Ficoll media were washed and resuspended at 10×10^6 cells/ml in complete RPMI for blocking. […]
# [2] = target: T4, soluble DQ6 (DQA1*01:02/DQB1*06:02) (Homo sapiens, UniProt P01909+P01920, A157G/A45G/C70R/E118A/E183D/E77G/F83G/G63E/H151Q/H199R/H252R/H253Q/I129T/I235V/I88M/INS77G/K197Q/L117V/L119F/L178F/L71W/L74F/L85Q/L91A/L98M/N214S/P87R/Q116E/Q76K/R102G/R240Q/R75S/R78G/S102Y/S185I/S41F/S97I/T121G/T122I/T172A/T86R/V229M/V68A/V73E/Y34C/Y41F/Y58L); assay: Peptide competition assay (inhibition of DQ6 binding of biotinylated EBV486-500)
# T4 construct: 3C protease cleavage site (C); leucine zipper-Fos (C); cut by thrombin before the assay (N, cleaved yes); leucine zipper-Jun (C); made in house; host or cells: Drosophila Schneider 2 (S2) insect cells
# Description: The ability of a peptide to inhibit the interaction of DQ6 and a reference binding peptide at steady state was used to estimate the relative DQ6 binding capacity of test peptides. We used biotinylated EBV486-500 (aa: biotin-[…] (SEQ ID NO:45), synthesized by Genscript), a DQ6-binding peptide (epitope underlined) derived from Epstein-Barr virus nuclear antigen^25, as our reference peptide. Non-biotinylated test peptides included thirty 15-mer overlapping peptides derived from prepo-HCRT (Table 1, by Genscript) and the positive control peptide EBV486-500. The DQ6-CLIP87-101 construct contains a thrombin cleavage site in between CLIP87-101 and […]. To cleave the covalent linker and enable replacement of CLIP87-101 by high affinity DQ6 binders, soluble DQ6-CLIP87-101 at a concentration of 3 μM was incubated with 0.002 U/μl thrombin enzyme (Novagen, EMD Millipore) for 2 h at room temperature (RT) prior to peptide loading experiments. To test DQ6 binding capacity, a non-biotinylated peptide at 40 μM was mixed with 1 μM biotinylated EBV486-500 and incubated with 25 nM thrombin-cleaved DQ6-CLIP87-101. 100 nM soluble DM was added as a catalyst to increase the peptide exchange efficiency^44. […] Time resolved fluorescence representing DQ6-associated biotinylated EBV486-500 captured by SPV-L3 in each well was then quantified using the DELFIA Eu-N1 Streptavidin System (PerkinElmer).
# [3] = tested on: TCR27 transfectants of J76-NFATRE-luc cells; assay: T cell activation assay using a luciferase reporter, TCR27 transfectants with K562-DQ6 APCs; format: cell-based, human; design: dose or concentration left out as unconfirmed; conditions: DQ6-restricted presentation by K562-DQ6, 1 day
# Description: To encode the entire α/β chains of a candidate TCR, the nucleotide sequences for CDR3a and CDR3P were incorporated in frame with the corresponding V(D)J genes (IMGT/V-QUEST^37). TCRα/β genes were then synthesized and cloned into a plasmid pEF1α-TCRA_2A_TCRB_IRES-AcGFP1 (by GenScript). Each reconstructed plasmid uses a mammalian promoter, EF1a to direct co-expression of α and β chains of one candidate TCR. TCRA and TCRB are separated by the 2A self-cleaving peptide sequence. For selection purposes, the plasmid also encodes the green fluorescence protein (GFP) and neomycin resistance gene, with expression driven by separate promoters. TCR-encoding plasmids were then transfected into the TCRα/β deficient Jurkat cell line (J76-NFATRE-luc)^20 by nucleofection following the Amaxa Optimized protocol (Lonza). Transfectants were selected by G418 at a concentration of 1 mg/ml and recovered after 3-4 weeks of culturing in the RPMI medium supplemented with 10% HI FBS, 2 mM glutamine, and 1% PS. To avoid the heterogeneity in TCR expression observed in a polyclonal cell line, TCRαβ^+/GFP^+/CD3^+ cell transfectants were individually sorted by single cell FACS, to expand clonal cell lines originating from single cell transfectants. These clonal lines were then co-stained with PE anti-TCRα/β Abs (BD Biosciences) and APC DQ6-HCRT tetramers to confirm the expression of TCRs and validate their binding to tetramers using flow cytometric analysis.
# The TCR transfectants of J76-NFATRE-luc cells expresses the NFAT-RE (response element)-luciferase reporter gene allowing the conversion of T cell activation signaling to luciferase activity^20. […] The co-culture was incubated with various stimuli at 37° C. for 1 day before quantification of the luciferase activity. […] The mixture was then transferred to a flat-bottom white 96-well plate (Costar) for a measurement of chemiluminescence using a plate reader.
# [4] = target: T1, prepro-HCRT (hypocretin precursor) …; assay: activation reporter or marker
# [5] = target: soluble HLA-DQ6 (DQA1*01:02/DQB1*06:02), thrombin-cleaved DQ6-CLIP87-101 (human); assay: competition: 40 µM test peptide against 1 µM biotinylated EBV486-500 on 25 nM soluble DQ6 with 100 nM HLA-DM, SPV-L3 capture, DELFIA
# [6] = target: T2, prepro-HCRT (hypocretin precursor) …; assay: multimer staining
# [7] = target: T3, prepro-HCRT (hypocretin precursor; …); assay: multimer staining
molecule,measurement,setting,value
AGNHAAGILTLGKR [HCRT56-69],Frequencies of tetramer+ cells after in vitro stimulation with the corresponding peptide,[1],significantly increased
ALLSSGAAAQPLPDC [HCRT25-39],DQ6 binder class,"[2]; competition assay, FIG. 2A",strong binder
"EBV486-500: a DQ6-binding peptide derived from Epstein-Barr virus nuclear antigen, reference and positive control peptide (Biotin-GGGRALLARSHVERTTDE) [reference compound]",Frequencies of tetramer+ cells after in vitro stimulation with the corresponding peptide,[1],time dependent enrichment
MNLPSTKVSWAAV [HCRT1-13],TCR-mediated signaling (luciferase activity),[3],failure of TCR27-mediated signaling
MNLPSTKVSWAAVTL [HCRT1-15],% Competition (inhibition of the indicator EBV peptide binding to DQ6),"[2]; test peptide 40 μM, 1 μM biotinylated EBV486-500, 25 nM DQ6, 100 nM DM, pH 4.6, 37° C., 20 hours",> 75%
SGNHAAGILTM-NH2 [HCRT87-97-NH2],TCR-mediated signaling (luciferase activity),[3],significant signaling response; also recorded: triggered stronger signaling
SGNHAAGILTMGRR [HCRT87-100],TCR-mediated signaling (luciferase activity),[3],able to trigger TCR-mediated activation signaling
same,Enrichment of DQ6-HCRT56-69 tetramer+ cells in peptide-stimulated culture,"[1]; stained with the DQ6-HCRT56-69 tetramer, some T1N donors",enrichment
same,Frequencies of tetramer+ cells after in vitro stimulation with the corresponding peptide,[1],significantly increased
B1,binding result,[4],no recognition
B2,% competition,[5],> 75%
B3,binding result,[4],no recognition
same,binding result,[6],no recognition
same,binding result,[7],no recognition
